Square brackets hold non-standard residues; d marks the D form. Peptide text beside a SMILES is read from it. * marks the point of attachment. NH((S)CH(Me)CH2NHC2H4OH) = C[C@@H](CNCCO)N*; Alaψ(CH2NMeCH2CH2OH) = C[C@@H](CN(C)CCO)N*; NH((S)CH(Me)CH2NMe2) = C[C@@H](CN(C)C)N*; NH((S)CH(CH3)CH2NHMe) = CNC[C@H](C)N*; Gly(octyl) = CCCCCCCC[C@H](N)C(=O)O; X5 = C[C@@H](N*)[C@@H](O)c1ccccc1; Hyp = O=C(O)[C@@H]1C[C@@H](O)CN1; Cha = N[C@@H](CC1CCCCC1)C(=O)O; Phe(ol) = N[C@H](CO)Cc1ccccc1; Lauroyl = CCCCCCCCCCCC(=O)*; Decanoyl = CCCCCCCCCC(=O)*; Pip = O=C(O)[C@@H]1CCCCN1; X1 = C[C@@H](CN1CCNCC1)N*; X2 = C[C@@H](CN1CCOCC1)N*; Octanoyl = CCCCCCCC(=O)*; Hexanoyl = CCCCCC(=O)*; Alaol = C[C@@H](CO)N*; NHCH2CH2NHMe = CNCCN*; Aib = CC(C)(N)C(=O)O; X3 = C[C@H](CNCCO)N*; Butyryl = CCCC(=O)*; NHCH2CH2OH = OCCN*; βAla = NCCC(=O)O; X4 = OCCNCCN*
Tests used:
Format in all cases: functional, cell-based
MDA-MB-468 = assay: Antiproliferative activity against human MDA-MB-468 cells assessed as reduction in cell growth by SRB assay
SK-BR-3 = assay: Antiproliferative activity against human SKBR3 cells assessed as reduction in cell growth by SRB assay
NCI-H460 = assay: Antiproliferative activity against human NCI-H460 cells assessed as reduction in cell growth by SRB assay
T47D = assay: Antiproliferative activity against human T47D cells assessed as reduction in cell growth by SRB assay

| Structure (SMILES) | IC50 (MDA-MB-468) [nM] | IC50 (SK-BR-3) [nM] | IC50 (NCI-H460) [nM] | IC50 (T47D) [nM] |
| --- | --- | --- | --- | --- |
| CCCCCCCC[C@H](NC(=O)C(C)(C)NC(=O)C(C)(C)NC(=O)[C@H](CC1CCCCC1)NC(=O)[C@H](C)NC(=O)CCC)C(=O)N[C@@H](CC(C)C)C(=O)NC(C)(C)C(=O)N[C@@H](CC(C)C)C(=O)NCCC(=O)N[C@@H](C)CNCCO (Butyryl-A[Cha][Aib][Aib][Gly(octyl)]L[Aib]L[βAla]-{NH((S)CH(Me)CH2NHC2H4OH)}) | 3 | 10 | 2 | 5 |
| CCCCCCCCCCCC(=O)N1CCC[C@H]1C(=O)N[C@@H](CC1CCCCC1)C(=O)NC(C)(C)C(=O)NC(C)(C)C(=O)N[C@@H](CCCCCCCC)C(=O)N[C@@H](CC(C)C)C(=O)NC(C)(C)C(=O)N[C@@H](CC(C)C)C(=O)NCCC(=O)N[C@@H](C)CNCCO (Lauroyl-P[Cha][Aib][Aib][Gly(octyl)]L[Aib]L[βAla]-{NH((S)CH(Me)CH2NHC2H4OH)}) | 23 | 73 | 37 | 63 |
| CCCCCCCC[C@H](NC(=O)C(C)(C)NC(=O)C(C)(C)NC(=O)[C@H](CC1CCCCC1)NC(=O)[C@@H]1CCCN1)C(=O)N[C@@H](CC(C)C)C(=O)NC(C)(C)C(=O)N[C@@H](CC(C)C)C(=O)NCCC(=O)N[C@@H](C)CNCCO (H-P[Cha][Aib][Aib][Gly(octyl)]L[Aib]L[βAla]-{NH((S)CH(Me)CH2NHC2H4OH)}) | 10 | 57 | 9 | 13 |
| CCCCCCCC[C@H](NC(=O)C(C)(C)NC(=O)C(C)(C)NC(=O)[C@H](CC1CCCCC1)NC(=O)[C@@H]1CCCN1C(=O)CCCCCCC)C(=O)N[C@@H](CC(C)C)C(=O)NC(C)(C)C(=O)N[C@@H](CC(C)C)C(=O)NCCC(=O)N[C@@H](C)CNCCO (Octanoyl-P[Cha][Aib][Aib][Gly(octyl)]L[Aib]L[βAla]-{NH((S)CH(Me)CH2NHC2H4OH)}) | 4 | 15 | 4 | 7 |
| CCCCCCCC[C@H](NC(=O)C(C)(C)NC(=O)C(C)(C)NC(=O)[C@H](CC1CCCCC1)NC(=O)[C@@H]1CCCN1C(C)=O)C(=O)N[C@@H](CC(C)C)C(=O)NC(C)(C)C(=O)N[C@@H](CC(C)C)C(=O)NCCC(=O)N[C@@H](C)CNCCO (Ac-P[Cha][Aib][Aib][Gly(octyl)]L[Aib]L[βAla]-{NH((S)CH(Me)CH2NHC2H4OH)}) | 13 | 52 | 11 | 15 |
| CCCCCCCC[C@H](NC(=O)C(C)(C)NC(=O)C(C)(C)NC(=O)[C@H](CC1CCCCC1)NC(=O)[C@@H]1CCCN1C(=O)CCCCC)C(=O)N[C@@H](CC(C)C)C(=O)NC(C)(C)C(=O)N[C@@H](CC(C)C)C(=O)NCCC(=O)N[C@@H](C)CNCCO (Hexanoyl-P[Cha][Aib][Aib][Gly(octyl)]L[Aib]L[βAla]-{NH((S)CH(Me)CH2NHC2H4OH)}) | 5 | 18 | 4 | 7 |
| CCCCCCCCCC(=O)N1CCC[C@H]1C(=O)N[C@@H](CC1CCCCC1)C(=O)NC(C)(C)C(=O)NC(C)(C)C(=O)N[C@@H](CCCCCCCC)C(=O)N[C@@H](CC(C)C)C(=O)NC(C)(C)C(=O)N[C@@H](CC(C)C)C(=O)NCCC(=O)N[C@@H](C)CNCCO (Decanoyl-P[Cha][Aib][Aib][Gly(octyl)]L[Aib]L[βAla]-{NH((S)CH(Me)CH2NHC2H4OH)}) | 6 | 20 | 9 | 13 |
| CCCCCCCC[C@H](NC(=O)C(C)(C)NC(=O)C(C)(C)NC(=O)[C@H](CC1CCCCC1)NC(=O)[C@@H]1CCCN1C(=O)CCC)C(=O)N[C@@H](CC(C)C)C(=O)NC(C)(C)C(=O)N[C@@H](CC(C)C)C(=O)NCCC(=O)N[C@H](C)[C@@H](O)c1ccccc1 (Butyryl-P[Cha][Aib][Aib][Gly(octyl)]L[Aib]L[βAla]-X5) | 242 | 344 | 89 | 471 |
| CCCCCCCC[C@H](NC(=O)C(C)(C)NC(=O)C(C)(C)NC(=O)[C@H](CC1CCCCC1)NC(=O)[C@@H]1CCCN1C(=O)CCC)C(=O)N[C@@H](CC(C)C)C(=O)NC(C)(C)C(=O)N[C@@H](CC(C)C)C(=O)NCCC(=O)N[C@@H](C)CN1CCOCC1 (Butyryl-P[Cha][Aib][Aib][Gly(octyl)]L[Aib]L[βAla]-X2) | 59 | 99 | 34 | 36 |
| CCCCCCCC[C@H](NC(=O)C(C)(C)NC(=O)C(C)(C)NC(=O)[C@H](CC1CCCCC1)NC(=O)[C@@H]1C[C@@H](O)CN1C(=O)CCC)C(=O)N[C@@H](CC(C)C)C(=O)NC(C)(C)C(=O)N[C@@H](CC(C)C)C(=O)NCCC(=O)N[C@@H](C)CNCCO (Butyryl-[Hyp][Cha][Aib][Aib][Gly(octyl)]L[Aib]L[βAla]-{NH((S)CH(Me)CH2NHC2H4OH)}) | 37 | 124 | 40 | 38 |
| CCCCCCCC[C@H](NC(=O)C(C)(C)NC(=O)C(C)(C)NC(=O)[C@H](CC1CCCCC1)NC(=O)[C@@H]1CCCN1C(=O)CCC)C(=O)N[C@@H](CC(C)C)C(=O)NC(C)(C)C(=O)N[C@@H](CC(C)C)C(=O)NCCC(=O)N[C@H](CO)Cc1ccccc1 (Butyryl-P[Cha][Aib][Aib][Gly(octyl)]L[Aib]L[βAla][Phe(ol)]) | 144 | 178 | 45 | 247 |
| CCCCCCCC[C@H](NC(=O)C(C)(C)NC(=O)C(C)(C)NC(=O)[C@H](CC1CCCCC1)NC(=O)[C@@H]1CCCN1C(=O)CCC)C(=O)N[C@@H](CC(C)C)C(=O)NC(C)(C)C(=O)N[C@@H](CC(C)C)C(=O)NCCC(=O)N[C@@H](C)CN1CCNCC1 (Butyryl-P[Cha][Aib][Aib][Gly(octyl)]L[Aib]L[βAla]-X1) | > 1000 | > 1000 | > 1000 | > 1000 |

Other lines, results leading:

| IC50 (MDA-MB-468) [nM] | IC50 (SK-BR-3) [nM] | IC50 (NCI-H460) [nM] | IC50 (T47D) [nM] | Structure (SMILES) |
| --- | --- | --- | --- | --- |
| 10 | 67 | 17 | 15 | CCCCCCCC[C@H](NC(=O)C(C)(C)NC(=O)C(C)(C)NC(=O)[C@H](CC1CCCCC1)NC(=O)[C@@H]1CCCN1C(=O)CCC)C(=O)N[C@@H](CC(C)C)C(=O)NC(C)(C)C(=O)N[C@@H](CC(C)C)C(=O)NCCC(=O)NCCNCCO (Butyryl-P[Cha][Aib][Aib][Gly(octyl)]L[Aib]L[βAla]-X4) |
| 363 | 512 | 223 | 767 | CCCCCCCC[C@H](NC(=O)C(C)(C)NC(=O)C(C)(C)NC(=O)[C@H](CC1CCCCC1)NC(=O)[C@@H]1CCCN1C(=O)CCC)C(=O)N[C@@H](CC(C)C)C(=O)NC(C)(C)C(=O)N[C@@H](CC(C)C)C(=O)NCCC(=O)NCCO (Butyryl-P[Cha][Aib][Aib][Gly(octyl)]L[Aib]L[βAla]-NHCH2CH2OH) |
| 5 | 27 | 10 | 8 | CCCCCCCC[C@H](NC(=O)C(C)(C)NC(=O)C(C)(C)NC(=O)[C@H](CC1CCCCC1)NC(=O)[C@@H]1CCCN1C(=O)CCC)C(=O)N[C@@H](CC(C)C)C(=O)NC(C)(C)C(=O)N[C@@H](CC(C)C)C(=O)NCCC(=O)NCCNC (Butyryl-P[Cha][Aib][Aib][Gly(octyl)]L[Aib]L[βAla]-NHCH2CH2NHMe) |
| 31 | 205 | 50 | 31 | CCCCCCCC[C@H](NC(=O)C(C)(C)NC(=O)C(C)(C)NC(=O)[C@H](CC1CCCCC1)NC(=O)[C@@H]1CCCN1C(=O)CCC)C(=O)N[C@@H](CC(C)C)C(=O)NC(C)(C)C(=O)N[C@@H](CC(C)C)C(=O)NCCC(=O)N[C@H](C)CNCCO (Butyryl-P[Cha][Aib][Aib][Gly(octyl)]L[Aib]L[βAla]-X3) |
| 11 | 34 | 9 | 11 | CCCCCCCC[C@H](NC(=O)C(C)(C)NC(=O)C(C)(C)NC(=O)[C@H](CC1CCCCC1)NC(=O)[C@@H]1CCCCN1C(=O)CCC)C(=O)N[C@@H](CC(C)C)C(=O)NC(C)(C)C(=O)N[C@@H](CC(C)C)C(=O)NCCC(=O)N[C@@H](C)CNCCO (Butyryl-[Pip][Cha][Aib][Aib][Gly(octyl)]L[Aib]L[βAla]-{NH((S)CH(Me)CH2NHC2H4OH)}) |
| 3 | 13 | 3 | 5 | CCCCCCCC[C@H](NC(=O)C(C)(C)NC(=O)C(C)(C)NC(=O)[C@H](CC1CCCCC1)NC(=O)[C@@H]1CCCN1C(=O)CCC)C(=O)N[C@@H](CC(C)C)C(=O)NC(C)(C)C(=O)N[C@@H](CC(C)C)C(=O)NCCC(=O)N[C@@H](C)CNC (Butyryl-P[Cha][Aib][Aib][Gly(octyl)]L[Aib]L[βAla]-{NH((S)CH(CH3)CH2NHMe)}) |
| > 1000 | > 1000 | > 1000 | > 1000 | CCCCCCCC[C@H](NC(=O)C(C)(C)NC(=O)C(C)(C)NC(=O)[C@H](CC1CCCCC1)NC(=O)[C@@H]1CCCN1C(=O)CCC)C(=O)N[C@@H](CC(C)C)C(=O)NC(C)(C)C(=O)N[C@@H](CC(C)C)C(=O)NCCC(=O)O (Butyryl-P[Cha][Aib][Aib][Gly(octyl)]L[Aib]L[βAla]-OH) |
| 2 | 8 | 2 | 3 | CCCCCCCC[C@H](NC(=O)C(C)(C)NC(=O)C(C)(C)NC(=O)[C@H](CC1CCCCC1)NC(=O)[C@@H]1CCCN1C(=O)CCC)C(=O)N[C@@H](CC(C)C)C(=O)NC(C)(C)C(=O)N[C@@H](CC(C)C)C(=O)NCCC(=O)N[C@@H](C)CN(C)CCO (Butyryl-P[Cha][Aib][Aib][Gly(octyl)]L[Aib]L[βAla]-{Alaψ(CH2NMeCH2CH2OH)}) |
| 4 | 10 | 4 | 6 | CCCCCCCC[C@H](NC(=O)C(C)(C)NC(=O)C(C)(C)NC(=O)[C@H](CC1CCCCC1)NC(=O)[C@@H]1CCCN1C(=O)CCC)C(=O)N[C@@H](CC(C)C)C(=O)NC(C)(C)C(=O)N[C@@H](CC(C)C)C(=O)NCCC(=O)N[C@@H](C)CN(C)C (Butyryl-P[Cha][Aib][Aib][Gly(octyl)]L[Aib]L[βAla]-{NH((S)CH(Me)CH2NMe2)}) |
| 336 | 509 | 130 | 490 | CCCCCCCC[C@H](NC(=O)C(C)(C)NC(=O)C(C)(C)NC(=O)[C@H](CC1CCCCC1)NC(=O)[C@@H]1CCCN1C(=O)CCC)C(=O)N[C@@H](CC(C)C)C(=O)NC(C)(C)C(=O)N[C@@H](CC(C)C)C(=O)NCCC(=O)N[C@@H](C)CO (Butyryl-P[Cha][Aib][Aib][Gly(octyl)]L[Aib]L[βAla]-Alaol) |
